biological target: Factor D (Homo sapiens (Human), UniProt P00746); assay: Factor D esterolytic assay (Z-Lys-SBzl substrate, DTNB, 405 nm); assay type: biochemical; conditions: Z-Lys-SBzl 1.29 mM, pH 7.5, 10% DMSO, tested a minimum of three times, read-out: Measured Ki (IC50) Value for Compounds: IC50
Procedure, shortened: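 Human Factor D ([…]) with 1.29 mM Z-Lys-SBzl in 100 mM HEPES, 500 mM NaCl, pH 7.5, 10% DMSO; substrate added immediately or after room-temperature preincubation. Released thiol reacted with DTNB, rate followed at 405 nm for 600 sec, 690 nm background subtracted. IC50 from percent inhibition versus uninhibited rate, n≥3.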

Sequence of Factor D (P00746 26-253): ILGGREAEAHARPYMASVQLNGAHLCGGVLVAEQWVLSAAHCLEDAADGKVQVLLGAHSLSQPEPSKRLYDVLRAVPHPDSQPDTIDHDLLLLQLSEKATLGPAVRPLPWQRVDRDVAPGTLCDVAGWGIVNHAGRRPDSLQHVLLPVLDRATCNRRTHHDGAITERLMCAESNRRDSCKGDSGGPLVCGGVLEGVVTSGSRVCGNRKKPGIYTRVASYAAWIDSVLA

SMILES | IC50 [nM]
NCc1cccc(-c2cc(COc3ccccc3CC(=O)O)cc3cc(Cl)oc23)c1 [Compound 169f, 2-(2-((7-(3-(aminomethyl)phenyl)-2-chlorobenzofuran-5-yl)methoxy)phenyl)acetic acid] | < 1000
COCc1cc2cc(COc3ccccc3CC(=O)O)cc(-c3cccc(CN)c3)c2o1 [Compound 96e, 2-(2-((7-(3-(aminomethyl)phenyl)-2-(methoxymethyl)benzofuran-5-yl)methoxy)phenyl)acetic acid] | < 1000
NCc1cccc(-c2cc(COc3ccccc3CC(=O)O)cc3[nH]ncc23)c1 [Compound 156b, 2-(2-((4-(3-(aminomethyl)phenyl)-1H-indazol-6-yl)methoxy)phenyl)acetic acid] | < 1000
CC(C)Cc1cc2cc(COc3ccccc3CC(=O)O)cc(-c3cccc(CN)c3)c2o1 [Compound 201b, 2-(2-((7-(3-(aminomethyl)phenyl)-2-isobutylbenzofuran-5-yl)methoxy)phenyl)acetic acid] | < 1000
Cc1cc2cc(COc3ccccc3CC(=O)O)cc(-c3ccnc(CN)c3)c2o1 [Compound 112c, 2-(2-((7-(2-(aminomethyl)pyridin-4-yl)-2-methylbenzofuran-5-yl)methoxy)phenyl)acetic acid] | < 1000
NCc1cccc(-c2nc(C(=O)Nc3ccccc3CC(=O)O)c3ccc(CN4CCCC4)n3n2)c1 [Compound 46g, 2-(2-(2-(3-(aminomethyl)phenyl)-7-(pyrrolidin-1-ylmethyl)pyrrolo[2,1-f][1,2,4]triazine-4-carboxamido)phenyl)acetic acid] | 1000 to 10000
Cc1ccc(S(=O)(=O)n2ccc3c(-c4cccc(CN)c4)cc(COc4ccccc4CC(=O)O)cc32)cc1 [Compound 40e, 2-(2-((4-(3-(aminomethyl)phenyl)-1-tosyl-1H-indol-6-yl)methoxy)phenyl)acetic acid] | < 1000
NCc1coc2c(-c3cc(COc4ccccc4CC(=O)O)cc4ccoc34)cccc12 [Compound 38f, 2-(2-((3′-(aminomethyl)-[7,7′-bibenzofuran]-5-yl)methoxy)phenyl)acetic acid] | < 1000
Cc1ccc(CC(=O)O)c(OCc2cc(-c3cccc(CN)c3)c3occc3c2)c1 [Compound 202c, 2-(2-((7-(3-(aminomethyl)phenyl)benzofuran-5-yl)methoxy)-4-methylphenyl)acetic acid] | < 1000
CCCc1ccc(CC(=O)O)c(OCc2cc(-c3cccc(CN)c3)c3occc3c2)c1 [Compound 266g, 2-(2-((7-(3-(aminomethyl)phenyl)benzofuran-5-yl)methoxy)-4-propylphenyl)acetic acid] | < 1000
CC(=O)Nc1ccc(CC(=O)O)c(OCc2cc(-c3cccc(C(N)CF)c3)c3occc3c2)c1 (single isomer, unassigned; (+)) [Compound 434c, (+)-2-(4-acetamido-2-((7-(3-(1-amino-2-fluoroethyl)phenyl)benzofuran-5-yl)methoxy)phenyl)acetic acid] | < 1000
Cc1cc(CN)cc(-c2cc(COc3ccccc3CC(=O)O)cc3ccoc23)c1 [Compound 89c, 2-(2-((7-(3-(aminomethyl)-5-methylphenyl)benzofuran-5-yl)methoxy)phenyl)acetic acid] | < 1000
NCc1cccc(-c2cc(COc3ccccc3CC(=O)O)cc3ccoc23)c1 [Compound 23e, 2-(2-((7-(3-(aminomethyl)phenyl)benzofuran-5-yl)methoxy)phenyl)acetic acid] | < 1000
N[C@H](CO)c1cc(-c2cc(COc3ccccc3CC(=O)O)cc3ccoc23)ccn1 [Compound 77c, (S)-2-(2-((7-(2-(1-amino-2-hydroxyethyl)pyridin-4-yl)benzofuran-5-yl)methoxy)phenyl)acetic acid] | < 1000
NCc1cccc(-c2cc(COc3ccccc3CC(=O)O)cc3nn(CC4CC4)cc23)c1F [Compound 164e, 2-(2-((4-(3-(aminomethyl)-2-fluorophenyl)-2-(cyclopropylmethyl)-2H-indazol-6-yl)methoxy)phenyl)acetic acid] | < 1000
NCc1cccc(-c2nc(C(=O)Nc3ccccc3CC(=O)O)c3ccccc3n2)c1 [Compound 64f, 2-(2-(2-(3-(aminomethyl)phenyl)quinazoline-4-carboxamido)phenyl)acetic acid] | < 1000
NCc1nccc(-c2cc(COc3ccccc3CC(=O)O)cc3c2ccn3CC2CC2)c1F [Compound 170b, 2-(2-((4-(2-(aminomethyl)-3-fluoropyridin-4-yl)-1-(cyclopropylmethyl)-1H-indol-6-yl)methoxy)phenyl)acetic acid] | < 1000
Cc1cccc(CC(=O)O)c1NC(=O)c1nc(-c2cccc(CN)c2)nn2cccc12 [Compound 53d, 2-(2-(2-(3-(aminomethyl)phenyl)pyrrolo[2,1-f][1,2,4]triazine-4-carboxamido)-3-methylphenyl)acetic acid] | < 1000
NCc1cccc(-c2cc(C(=O)Nc3ccccc3CC(=O)O)cc3[nH]ccc23)c1 [Compound 9d, 2-(2-(4-(3-(aminomethyl)phenyl)-1H-indole-6-carboxamido)phenyl)acetic acid] | < 1000
Cc1ccc2c(C(=O)Nc3ccccc3CC(=O)O)nc(-c3cccc(CN)c3F)nn12 [Compound 161e, 2-(2-(2-(3-(aminomethyl)-2-fluorophenyl)-7-methylpyrrolo[2,1-f][1,2,4]triazine-4-carboxamido)phenyl)acetic acid] | < 1000

Further lines, results first:

IC50 [nM] | SMILES
> 10000 | N[C@@H](c1cc(-c2cc(COc3ccccc3CC(=O)O)cc3ccoc23)ccn1)C(F)(F)F [Compound 381e, (S)-2-(2-((7-(2-(1-amino-2,2,2-trifluoroethyl)pyridin-4-yl)benzofuran-5-yl)methoxy)phenyl)acetic acid]
< 1000 | COc1cccc(CC(=O)O)c1OCc1cc(-c2ccnc(CN)c2F)c2occc2c1 [Compound 527b, 2-(2-((7-(2-(aminomethyl)-3-fluoropyridin-4-yl)benzofuran-5-yl)methoxy)-3-methoxyphenyl)acetic acid]
< 1000 | NCc1cccc(-c2cc(COc3cc(-c4ccncc4)ccc3CC(=O)O)cc3ccoc23)c1 [Compound 323c, 2-(2-((7-(3-(aminomethyl)phenyl)benzofuran-5-yl)methoxy)-4-(pyridin-4-yl)phenyl)acetic acid]
< 1000 | NCc1nccc(-c2cc(COc3cc(-c4ccccc4)ccc3CC(=O)O)cc3ccoc23)c1F [Compound 394c, 2-(3-((7-(2-(aminomethyl)-3-fluoropyridin-4-yl)benzofuran-5-yl)methoxy)-[1,1′-biphenyl]-4-yl)acetic acid]
< 1000 | NCc1cccc(-c2cc(COc3cc(-c4ccc(F)cc4)ccc3CC(=O)O)cc3ccoc23)c1 [Compound 398c, 2-(3-((7-(3-(aminomethyl)phenyl)benzofuran-5-yl)methoxy)-4′-fluoro-[1,1′-biphenyl]-4-yl)acetic acid]
< 1000 | Cc1ccc(CC(=O)O)c(OCc2cc(-c3ccnc(CN)c3)c3ccn(C(C)C)c3c2)c1 [Compound 354c, 2-(2-((4-(2-(aminomethyl)pyridin-4-yl)-1-isopropyl-1H-indol-6-yl)methoxy)-4-methylphenyl)acetic acid]
< 1000 | CC(=O)c1ccc(CC(=O)O)c(OCc2cc(-c3ccnc(CN)c3F)c3occc3c2)c1 [Compound 505d, 2-(4-acetyl-2-((7-(2-(aminomethyl)-3-fluoropyridin-4-yl)benzofuran-5-yl)methoxy)phenyl)acetic acid]
< 1000 | NCc1cccc(-c2cc(COc3ccccc3CC(=O)O)cc3c2ccn3-c2ccccc2)c1 [Compound 351f, 2-(2-((4-(3-(aminomethyl)phenyl)-1-phenyl-1H-indol-6-yl)methoxy)phenyl)acetic acid]
< 1000 | CC(N)c1cc2cc(COc3ccccc3CC(=O)O)cc(-c3cccc(CN)c3)c2o1 (single isomer, unassigned; (-)) [Compound 442d, (−)-2-(2-((2-(1-aminoethyl)-7-(3-(aminomethyl)phenyl)benzofuran-5-yl)methoxy)phenyl)acetic acid]
< 1000 | NCc1cc(-c2cc(COc3ccccc3CC(=O)O)cc3sc(Cl)cc23)ccn1 [Compound 336c, 2-(2-((4-(2-(aminomethyl)pyridin-4-yl)-2-chlorobenzo[b]thiophen-6-yl)methoxy)phenyl)acetic acid]
< 1000 | Cc1ccc(CC(=O)O)c(OCc2cc(-c3cccc(CN)c3)c3ccn(C)c3c2)c1 [Compound 358c, 2-(2-((4-(3-(aminomethyl)phenyl)-1-methyl-1H-indol-6-yl)methoxy)-4-methylphenyl)acetic acid]
< 1000 | COc1ccc(CC(=O)O)c(OCc2cc(-c3ccnc(CN)c3)c3oc(F)cc3c2)c1 [Compound 492b, 2-(2-((7-(2-(aminomethyl)pyridin-4-yl)-2-fluorobenzofuran-5-yl)methoxy)-4-methoxyphenyl)acetic acid]
< 1000 | Cc1cc2c(-c3ccnc(CN)c3)cc(COc3ccccc3CC(=O)O)cc2o1 [Compound 461c, 2-(2-((4-(2-(aminomethyl)pyridin-4-yl)-2-methylbenzofuran-6-yl)methoxy)phenyl)acetic acid]
< 1000 | NCc1nccc(-c2cc(COc3ccccc3CC(=O)O)cc3cc(F)oc23)c1F [Compound 300c, 2-(2-((7-(2-(aminomethyl)-3-fluoropyridin-4-yl)-2-fluorobenzofuran-5-yl)methoxy)phenyl)acetic acid]
< 1000 | NCc1cccc(-c2cc(COc3cc(F)ccc3CC(=O)O)c(F)c3ccoc23)c1F [Compound 485b, 2-(2-((7-(3-(aminomethyl)-2-fluorophenyl)-4-fluorobenzofuran-5-yl)methoxy)-4-fluorophenyl)acetic acid]
< 1000 | NCc1cccc(-c2cc(C(=O)N[C@@H]3CCC[C@H]3C(=O)NCc3cccc(Cl)c3F)cc3ccoc23)c1 (relative stereo) [Compound 376e, 7-(3-(aminomethyl)phenyl)-N-((trans)-2-((3-chloro-2-fluorobenzyl)carbamoyl)cyclopentyl)benzofuran-5-carboxamide]
